In publication PMC4490784, “Compensatory induction of MYC expression by sustained CDK9 inhibition via a BRD4-dependent mechanism” (eLife, 2015):

Columns and labels:
Experiment in all cases: KINOMEscan binding assay
[1] = molecular target: T1, RET(V804M) (Homo sapiens, UniProt P07949, V804M); settings: read-out: % Retention on Solid Support
T1 construct: purchased DiscoveRx KINOMEscan
How it was run: (§1)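 i-CDK9 at 1 and 10 µM; competition binding against an immobilized active-site probe; >400-kinase panel.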

[2] = molecular target: T2, IKK-beta (Homo sapiens, UniProt O14920); settings: read-out: % Retention on Solid Support
T2 construct: purchased DiscoveRx KINOMEscan
How it was run: as §1

[3] = molecular target: T3, BIKE (Homo sapiens, UniProt Q9NSY1); settings: read-out: % Retention on Solid Support
T3 construct: purchased DiscoveRx KINOMEscan
T3 sequence (Q9NSY1 whole entry): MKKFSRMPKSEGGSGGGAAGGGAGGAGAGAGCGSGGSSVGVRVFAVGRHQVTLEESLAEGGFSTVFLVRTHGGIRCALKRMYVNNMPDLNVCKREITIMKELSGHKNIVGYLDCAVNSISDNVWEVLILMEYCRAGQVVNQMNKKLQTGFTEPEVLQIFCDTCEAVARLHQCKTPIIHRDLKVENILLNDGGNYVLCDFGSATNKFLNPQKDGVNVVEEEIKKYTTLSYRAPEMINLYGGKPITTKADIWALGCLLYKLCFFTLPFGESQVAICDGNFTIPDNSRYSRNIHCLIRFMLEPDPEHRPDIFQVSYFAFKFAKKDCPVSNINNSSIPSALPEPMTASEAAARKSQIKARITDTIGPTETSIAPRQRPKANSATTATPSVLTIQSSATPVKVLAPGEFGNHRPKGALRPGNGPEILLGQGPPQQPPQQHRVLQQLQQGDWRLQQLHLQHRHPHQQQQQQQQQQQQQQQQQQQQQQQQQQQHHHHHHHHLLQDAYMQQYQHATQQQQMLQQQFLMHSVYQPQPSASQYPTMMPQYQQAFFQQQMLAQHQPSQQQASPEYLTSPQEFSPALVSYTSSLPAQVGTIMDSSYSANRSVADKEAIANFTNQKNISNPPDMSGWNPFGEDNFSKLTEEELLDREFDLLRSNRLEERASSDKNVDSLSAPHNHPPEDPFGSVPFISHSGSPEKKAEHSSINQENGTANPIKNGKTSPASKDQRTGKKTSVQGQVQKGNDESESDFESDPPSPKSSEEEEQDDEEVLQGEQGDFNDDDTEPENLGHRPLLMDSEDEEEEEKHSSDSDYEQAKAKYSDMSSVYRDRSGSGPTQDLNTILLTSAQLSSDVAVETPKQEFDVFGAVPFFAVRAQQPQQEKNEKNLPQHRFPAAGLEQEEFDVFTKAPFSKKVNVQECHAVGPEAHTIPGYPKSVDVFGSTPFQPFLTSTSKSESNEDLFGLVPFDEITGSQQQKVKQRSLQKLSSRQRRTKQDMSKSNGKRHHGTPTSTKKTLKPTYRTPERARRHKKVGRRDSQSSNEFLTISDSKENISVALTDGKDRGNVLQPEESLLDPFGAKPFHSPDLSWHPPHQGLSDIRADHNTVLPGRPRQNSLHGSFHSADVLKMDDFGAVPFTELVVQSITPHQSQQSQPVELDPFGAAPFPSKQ
How it was run: as §1

[4] = molecular target: T4, GRK4 (Homo sapiens, UniProt P32298); settings: read-out: % Retention on Solid Support
T4 construct: purchased DiscoveRx KINOMEscan
How it was run: as §1

[5] = molecular target: T5, MINK (Homo sapiens, UniProt Q8N4C8); settings: read-out: % Retention on Solid Support
T5 construct: purchased DiscoveRx KINOMEscan
How it was run: as §1

[6] = molecular target: T6, PIM1 (Homo sapiens, UniProt P11309); settings: read-out: % Retention on Solid Support
T6 construct: purchased DiscoveRx KINOMEscan
How it was run: as §1

[7] = molecular target: T7, MET(M1250T) (Homo sapiens, UniProt P08581, M1250T)
T7 construct: purchased DiscoveRx KINOMEscan
How it was run: as §1

[8] = molecular target: T8, PFPK5(P.falciparum) (Plasmodium falciparum, UniProt P61075); settings: 1 µM i-CDK9; read-out: % Retention on Solid Support
T8 construct: purchased DiscoveRx KINOMEscan
How it was run: as §1

[9] = molecular target: T9, BMPR1A (Homo sapiens, UniProt P36894); settings: read-out: % Retention on Solid Support
T9 construct: purchased DiscoveRx KINOMEscan
How it was run: as §1

[10] = molecular target: T10, CAMK1G (Homo sapiens, UniProt Q96NX5); settings: read-out: % Retention on Solid Support
T10 construct: purchased DiscoveRx KINOMEscan
How it was run: as §1

[11] = molecular target: T11, CSNK2A2 (Homo sapiens, UniProt P19784); settings: read-out: % Retention on Solid Support
T11 construct: purchased DiscoveRx KINOMEscan
How it was run: as §1

[12] = molecular target: T12, RIPK2 (Homo sapiens, UniProt O43353); settings: read-out: % Retention on Solid Support
T12 construct: purchased DiscoveRx KINOMEscan
T12 sequence (O43353 whole entry): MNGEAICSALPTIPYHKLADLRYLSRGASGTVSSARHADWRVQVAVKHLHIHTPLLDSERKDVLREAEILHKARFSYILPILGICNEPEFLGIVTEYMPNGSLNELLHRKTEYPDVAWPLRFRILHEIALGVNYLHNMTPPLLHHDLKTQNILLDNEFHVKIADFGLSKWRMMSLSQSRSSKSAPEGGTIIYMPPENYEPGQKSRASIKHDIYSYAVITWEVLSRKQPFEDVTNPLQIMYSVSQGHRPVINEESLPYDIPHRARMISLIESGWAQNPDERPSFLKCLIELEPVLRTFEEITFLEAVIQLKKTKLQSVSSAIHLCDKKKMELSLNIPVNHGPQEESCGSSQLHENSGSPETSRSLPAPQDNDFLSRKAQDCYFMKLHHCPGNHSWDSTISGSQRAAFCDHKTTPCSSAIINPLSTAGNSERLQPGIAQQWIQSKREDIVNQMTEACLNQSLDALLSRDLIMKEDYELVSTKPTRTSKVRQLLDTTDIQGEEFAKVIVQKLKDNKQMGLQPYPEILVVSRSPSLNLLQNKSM
How it was run: as §1

[13] = molecular target: T13, CDK3 (Homo sapiens, UniProt Q00526)
T13 construct: purchased DiscoveRx KINOMEscan
T13 sequence (Q00526 whole entry): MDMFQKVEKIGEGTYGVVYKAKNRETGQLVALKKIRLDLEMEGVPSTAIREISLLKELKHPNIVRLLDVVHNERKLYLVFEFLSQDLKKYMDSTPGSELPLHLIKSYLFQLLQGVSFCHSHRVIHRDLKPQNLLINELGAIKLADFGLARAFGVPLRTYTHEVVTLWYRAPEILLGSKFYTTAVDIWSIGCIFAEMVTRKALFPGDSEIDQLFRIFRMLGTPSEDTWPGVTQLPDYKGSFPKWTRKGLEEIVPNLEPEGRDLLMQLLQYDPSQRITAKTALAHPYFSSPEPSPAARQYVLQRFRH
How it was run: as §1

[14] = molecular target: T14, NIM1 (Homo sapiens, UniProt Q8IY84); settings: read-out: % Retention on Solid Support
T14 construct: purchased DiscoveRx KINOMEscan
How it was run: as §1

[15] = molecular target: T15, FGFR4 (Homo sapiens, UniProt P22455); settings: read-out: % Retention on Solid Support
T15 construct: purchased DiscoveRx KINOMEscan
How it was run: as §1

[16] = molecular target: T16, FLT3(D835Y) (Homo sapiens, UniProt P36888, D835Y); settings: read-out: % Retention on Solid Support
T16 construct: purchased DiscoveRx KINOMEscan
How it was run: as §1

[17] = molecular target: T17, CAMKK1 (Homo sapiens, UniProt Q8N5S9); settings: read-out: % Retention on Solid Support
T17 construct: purchased DiscoveRx KINOMEscan
How it was run: as §1

[18] = molecular target: T18, CSNK1G2 (Homo sapiens, UniProt P78368)
T18 construct: purchased DiscoveRx KINOMEscan
T18 sequence (P78368 whole entry): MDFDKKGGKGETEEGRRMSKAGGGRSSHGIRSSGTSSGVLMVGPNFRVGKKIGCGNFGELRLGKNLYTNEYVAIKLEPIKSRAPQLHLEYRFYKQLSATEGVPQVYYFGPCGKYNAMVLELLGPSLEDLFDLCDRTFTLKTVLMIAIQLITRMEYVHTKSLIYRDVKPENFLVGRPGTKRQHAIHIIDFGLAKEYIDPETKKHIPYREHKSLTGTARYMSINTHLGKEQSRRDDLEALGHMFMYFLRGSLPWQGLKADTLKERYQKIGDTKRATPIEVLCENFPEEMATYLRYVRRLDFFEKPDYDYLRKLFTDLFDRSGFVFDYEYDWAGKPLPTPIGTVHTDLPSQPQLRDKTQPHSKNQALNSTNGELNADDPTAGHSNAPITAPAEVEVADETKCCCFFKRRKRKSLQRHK
How it was run: as §1

[19] = molecular target: T19, MAP3K3 (Homo sapiens, UniProt Q99759); settings: read-out: % Retention on Solid Support
T19 construct: purchased DiscoveRx KINOMEscan
How it was run: as §1

[20] = molecular target: T20, FLT4 (Homo sapiens, UniProt P35916); settings: read-out: % Retention on Solid Support
T20 construct: purchased DiscoveRx KINOMEscan
How it was run: as §1

[21] = molecular target: T21, MAP3K2 (Homo sapiens, UniProt Q9Y2U5); settings: read-out: % Retention on Solid Support
T21 construct: purchased DiscoveRx KINOMEscan
How it was run: as §1

[22] = molecular target: T22, DAPK2 (Homo sapiens, UniProt Q9UIK4); settings: read-out: % Retention on Solid Support
T22 construct: purchased DiscoveRx KINOMEscan
T22 sequence (Q9UIK4 whole entry): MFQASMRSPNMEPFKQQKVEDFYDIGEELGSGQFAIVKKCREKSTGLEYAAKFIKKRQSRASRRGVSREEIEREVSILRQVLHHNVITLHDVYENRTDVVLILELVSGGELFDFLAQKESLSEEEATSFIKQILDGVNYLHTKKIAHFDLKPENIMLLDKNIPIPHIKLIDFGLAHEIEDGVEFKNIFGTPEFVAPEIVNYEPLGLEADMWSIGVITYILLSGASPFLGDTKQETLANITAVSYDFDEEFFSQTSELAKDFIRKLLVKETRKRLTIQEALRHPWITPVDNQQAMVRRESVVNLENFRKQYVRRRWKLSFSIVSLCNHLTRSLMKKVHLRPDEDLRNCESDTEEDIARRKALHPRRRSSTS
How it was run: as §1

[23] = molecular target: T23, EPHB3 (Homo sapiens, UniProt P54753); settings: read-out: % Retention on Solid Support
T23 construct: purchased DiscoveRx KINOMEscan
How it was run: as §1

[24] = molecular target: T24, MEK3 (Homo sapiens, UniProt P46734); settings: read-out: % Retention on Solid Support
T24 construct: purchased DiscoveRx KINOMEscan
How it was run: as §1

[25] = molecular target: T25, HIPK4 (Homo sapiens, UniProt Q8NE63); settings: read-out: % Retention on Solid Support
T25 construct: purchased DiscoveRx KINOMEscan
How it was run: as §1

[26] = molecular target: T26, p38-gamma (Homo sapiens, UniProt P53778); settings: read-out: % Retention on Solid Support
T26 construct: purchased DiscoveRx KINOMEscan
T26 sequence (P53778 whole entry): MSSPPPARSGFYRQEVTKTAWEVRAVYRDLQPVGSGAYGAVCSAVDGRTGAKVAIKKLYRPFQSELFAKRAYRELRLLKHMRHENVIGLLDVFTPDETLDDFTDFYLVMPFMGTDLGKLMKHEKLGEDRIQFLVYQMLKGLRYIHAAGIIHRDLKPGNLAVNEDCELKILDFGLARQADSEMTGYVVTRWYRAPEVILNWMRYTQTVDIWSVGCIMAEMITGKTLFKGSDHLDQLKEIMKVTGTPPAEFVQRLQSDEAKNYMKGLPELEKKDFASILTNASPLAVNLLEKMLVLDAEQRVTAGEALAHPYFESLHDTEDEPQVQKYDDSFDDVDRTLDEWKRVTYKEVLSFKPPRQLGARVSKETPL
How it was run: as §1

[27] = molecular target: T27, ROS1 (Homo sapiens, UniProt P08922); settings: read-out: % Retention on Solid Support
T27 construct: purchased DiscoveRx KINOMEscan
How it was run: as §1

[28] = molecular target: T28, LYN (Homo sapiens, UniProt P07948); settings: read-out: % Retention on Solid Support
T28 construct: purchased DiscoveRx KINOMEscan
How it was run: as §1

[29] = molecular target: T29, MARK1 (Homo sapiens, UniProt Q9P0L2); settings: read-out: % Retention on Solid Support
T29 construct: purchased DiscoveRx KINOMEscan
T29 sequence (Q9P0L2 whole entry): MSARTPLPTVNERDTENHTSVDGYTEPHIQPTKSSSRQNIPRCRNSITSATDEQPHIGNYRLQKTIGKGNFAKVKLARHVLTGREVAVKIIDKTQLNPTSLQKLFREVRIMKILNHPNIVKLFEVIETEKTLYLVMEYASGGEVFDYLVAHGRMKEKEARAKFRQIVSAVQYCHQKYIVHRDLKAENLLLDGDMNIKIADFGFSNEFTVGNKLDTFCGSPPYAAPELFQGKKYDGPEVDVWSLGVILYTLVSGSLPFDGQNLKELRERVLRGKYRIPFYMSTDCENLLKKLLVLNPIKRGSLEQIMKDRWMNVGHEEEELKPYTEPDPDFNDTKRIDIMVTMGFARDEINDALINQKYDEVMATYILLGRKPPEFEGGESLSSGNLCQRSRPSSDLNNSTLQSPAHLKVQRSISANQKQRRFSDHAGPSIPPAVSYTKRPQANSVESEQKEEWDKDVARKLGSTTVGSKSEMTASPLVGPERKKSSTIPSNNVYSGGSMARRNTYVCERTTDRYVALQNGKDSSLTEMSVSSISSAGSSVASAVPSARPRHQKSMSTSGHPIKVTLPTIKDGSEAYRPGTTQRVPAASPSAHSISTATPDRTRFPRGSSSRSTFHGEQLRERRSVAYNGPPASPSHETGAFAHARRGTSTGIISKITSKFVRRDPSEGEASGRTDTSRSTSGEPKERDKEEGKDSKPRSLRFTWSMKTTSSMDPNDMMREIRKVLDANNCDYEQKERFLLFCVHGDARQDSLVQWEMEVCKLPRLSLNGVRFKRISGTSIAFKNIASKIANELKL
How it was run: as §1

[30] = molecular target: T30, MLK1 (Homo sapiens, UniProt P80192); settings: read-out: % Retention on Solid Support
T30 construct: purchased DiscoveRx KINOMEscan
How it was run: as §1

T1 sequence (P07949 29-1114 V804M): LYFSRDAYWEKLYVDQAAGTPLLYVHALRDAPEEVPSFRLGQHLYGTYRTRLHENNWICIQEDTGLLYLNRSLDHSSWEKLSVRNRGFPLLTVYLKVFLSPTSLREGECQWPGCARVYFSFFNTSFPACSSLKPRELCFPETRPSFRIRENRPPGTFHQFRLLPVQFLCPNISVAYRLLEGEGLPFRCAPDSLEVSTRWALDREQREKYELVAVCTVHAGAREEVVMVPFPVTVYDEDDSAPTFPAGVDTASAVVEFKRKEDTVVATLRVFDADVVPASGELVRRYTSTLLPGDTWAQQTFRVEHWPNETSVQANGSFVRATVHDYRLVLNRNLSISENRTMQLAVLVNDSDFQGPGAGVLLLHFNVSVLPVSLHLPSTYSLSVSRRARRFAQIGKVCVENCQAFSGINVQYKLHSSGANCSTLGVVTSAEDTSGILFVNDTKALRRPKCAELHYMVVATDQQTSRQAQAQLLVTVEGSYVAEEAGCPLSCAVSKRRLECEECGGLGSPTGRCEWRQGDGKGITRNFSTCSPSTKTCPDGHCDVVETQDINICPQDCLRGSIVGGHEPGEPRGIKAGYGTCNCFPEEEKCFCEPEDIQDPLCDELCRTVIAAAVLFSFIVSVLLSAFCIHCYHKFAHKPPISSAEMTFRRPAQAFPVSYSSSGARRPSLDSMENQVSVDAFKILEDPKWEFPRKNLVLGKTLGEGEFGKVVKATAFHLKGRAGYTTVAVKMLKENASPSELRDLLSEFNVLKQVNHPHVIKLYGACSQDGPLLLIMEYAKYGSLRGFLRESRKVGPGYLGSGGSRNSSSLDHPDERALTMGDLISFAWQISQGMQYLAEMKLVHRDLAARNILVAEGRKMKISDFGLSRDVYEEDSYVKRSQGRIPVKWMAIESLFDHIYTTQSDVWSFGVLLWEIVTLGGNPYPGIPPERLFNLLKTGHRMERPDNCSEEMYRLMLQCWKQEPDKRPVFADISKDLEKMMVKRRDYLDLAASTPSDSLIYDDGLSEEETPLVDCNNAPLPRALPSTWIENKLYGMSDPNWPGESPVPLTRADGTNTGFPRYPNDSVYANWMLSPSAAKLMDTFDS

## N[C@H]1CC[C@H](Nc2cc(-c3cccc(NCc4cccc(F)c4)n3)c(Cl)cn2)CC1 [i-CDK9, N2′-(trans-4-aminocyclohexyl)-5′-chloro-N6-(3-fluorobenzyl)-2,4′-bipyridine-2′,6-diamine]
[1]; 1 µM i-CDK9
  remaining binding at 1 µM: 74%
[1]; 10 µM i-CDK9
  remaining binding at 10 µM: 74%
[2]; 1 µM i-CDK9
  remaining binding at 1 µM: 100%
[2]; 10 µM i-CDK9
  remaining binding at 10 µM: 87%
[3]; 1 µM i-CDK9
  remaining binding at 1 µM: 100%
[3]; 10 µM i-CDK9
  remaining binding at 10 µM: 63%
[4]; 1 µM i-CDK9
  remaining binding at 1 µM: 100%
[4]; 10 µM i-CDK9
  remaining binding at 10 µM: 100%
[5]; 1 µM i-CDK9
  remaining binding at 1 µM: 100%
[5]; 10 µM i-CDK9
  remaining binding at 10 µM: 65%
[6]; 1 µM i-CDK9
  remaining binding at 1 µM: 100%
[6]; 10 µM i-CDK9
  remaining binding at 10 µM: 23%
[7]; 1 µM i-CDK9
  % Retention on Solid Support: 86%
[7]; 10 µM i-CDK9
  % Retention on Solid Support: 100%
[8]
  remaining binding at 1 µM: 100%
[9]; 1 µM i-CDK9
  remaining binding at 1 µM: 63%
[9]; 10 µM i-CDK9
  remaining binding at 10 µM: 100%
[10]; 1 µM i-CDK9
  remaining binding at 1 µM: 92%
[10]; 10 µM i-CDK9
  remaining binding at 10 µM: 100%
[11]; 1 µM i-CDK9
  remaining binding at 1 µM: 100%
[11]; 10 µM i-CDK9
  remaining binding at 10 µM: 78%
[12]; 1 µM i-CDK9
  remaining binding at 1 µM: 65%
[12]; 10 µM i-CDK9
  remaining binding at 10 µM: 77%
[13]; 1 µM i-CDK9
  % Retention on Solid Support: 57%
[13]; 10 µM i-CDK9
  % Retention on Solid Support: 16%
[14]; 1 µM i-CDK9
  remaining binding at 1 µM: 100%
[14]; 10 µM i-CDK9
  remaining binding at 10 µM: 100%
[15]; 1 µM i-CDK9
  remaining binding at 1 µM: 98%
[15]; 10 µM i-CDK9
  remaining binding at 10 µM: 100%
[16]; 1 µM i-CDK9
  remaining binding at 1 µM: 100%
[16]; 10 µM i-CDK9
  remaining binding at 10 µM: 68%
[17]; 1 µM i-CDK9
  remaining binding at 1 µM: 100%
[17]; 10 µM i-CDK9
  remaining binding at 10 µM: 100%
[18]; 1 µM i-CDK9
  % Retention on Solid Support: 100%
[18]; 10 µM i-CDK9
  % Retention on Solid Support: 66%
[19]; 1 µM i-CDK9
  remaining binding at 1 µM: 100%
[19]; 10 µM i-CDK9
  remaining binding at 10 µM: 93%
[20]; 1 µM i-CDK9
  remaining binding at 1 µM: 68%
[20]; 10 µM i-CDK9
  remaining binding at 10 µM: 72%
[21]; 1 µM i-CDK9
  remaining binding at 1 µM: 23%
[21]; 10 µM i-CDK9
  remaining binding at 10 µM: 100%
[22]; 1 µM i-CDK9
  remaining binding at 1 µM: 90%
[22]; 10 µM i-CDK9
  remaining binding at 10 µM: 80%
[23]; 1 µM i-CDK9
  remaining binding at 1 µM: 100%
[23]; 10 µM i-CDK9
  remaining binding at 10 µM: 95%
[24]; 1 µM i-CDK9
  remaining binding at 1 µM: 99%
[24]; 10 µM i-CDK9
  remaining binding at 10 µM: 85%
[25]; 1 µM i-CDK9
  remaining binding at 1 µM: 40%
[25]; 10 µM i-CDK9
  remaining binding at 10 µM: 3.2%
[26]; 1 µM i-CDK9
  remaining binding at 1 µM: 100%
[26]; 10 µM i-CDK9
  remaining binding at 10 µM: 100%
[27]; 1 µM i-CDK9
  remaining binding at 1 µM: 98%
[27]; 10 µM i-CDK9
  remaining binding at 10 µM: 100%
[28]; 1 µM i-CDK9
  remaining binding at 1 µM: 100%
[28]; 10 µM i-CDK9
  remaining binding at 10 µM: 81%
[29]; 1 µM i-CDK9
  remaining binding at 1 µM: 99%
[29]; 10 µM i-CDK9
  remaining binding at 10 µM: 100%
[30]; 1 µM i-CDK9
  remaining binding at 1 µM: 100%
[30]; 10 µM i-CDK9
  remaining binding at 10 µM: 100%
